# Where two headings read alike, the source gives them in different places.
# Key:
# [1] = target: T1, mGluR7 (Homo sapiens, UniProt Q14831); conditions: through an allosteric site; cited from earlier work
# [2] = tested on: presbycusis; experiment: treatment of patients with presbycusis, hearing threshold; assay type: in vivo, human; conditions: for hearing threshold left ear / hearing threshold right ear: after 14 days
# Protocol: A person presents with symptoms of presbycusis, including moderate loss of higher frequency (above 2000 Hz) hearing (50 decibel threshold) in both ears. The person is administered two drops per ear twice daily of a topical otic formulation comprising 10 ug/ml of AMN082 in a phosphate-buffered saline and further comprising 0.25% the carboxyvinyl water swellable gelling agent, Carbopol 934P; i.e., about 1 ug nGluR7 agonist per ear per dosing. After 14 days, the patient is tested by an audiologist. The threshold is lowered to 35 decibels right ear and 40 decibels left ear.
# A person presents with symptoms of presbycusis, including loss of moderately high frequency (above 1000 Hz) hearing (40 decibel threshold right ear and 35 decibel threshold left ear). The person is administered an oral formulation 4 times per day comprising 2 ug per dose of AMN082. The extended release capsule comprises a matrix of 10% by weight hydroxypropyl methylcellulose (e.g., Methocel®; Dow Chemical Company, U.S.A), and 50% by weight of a cornstarch filler. After 14 days, the threshold is lowered to 35 decibels right ear and 25 decibels left ear.
# A person presents with symptoms of presbycusis, including loss of hearing in the 500 to above 2000 Hz range. The person is implanted with an Alset® osmotic pump adapted for cochlear delivery; see e.g., Richardson, R. T., Noushi, F., O'Leary, S. Inner ear therapy for neural preservation. AUDIOLOGY AND NEURO-OTOLOGY 2006; 11(6): 343-356. The pump is supplied with an aqueous sterile solution comprising AMN082. The pump delivers a dose of 10 ug/hour of the mGluR7 modulator. After 10 days, hearing is improved in both ears.
# [3] = target: T2, mGluR7 (Mus musculus, UniProt Q68ED2); conditions: cited from earlier work
# T2 construct: host or cells: whole animals (in vivo), endogenous receptor
# [4] = target: mGluR4a (Homo sapiens, UniProt Q14833); conditions: agonist; cited from earlier work
# [5] = target: human mGluR7b (Homo sapiens, UniProt Q14831); conditions: agonist; cited from earlier work
# [6] = target: T1, mGluR7; conditions: higher for mGluR7; cited from earlier work
# [7] = target: mGluR1 (Homo sapiens, UniProt Q13255); conditions: concentrations of at least 1 μM; cited from earlier work
# [8] = target: T3, rat mGluR7 (Rattus norvegicus, UniProt P35400); conditions: cited from earlier work
# T3 construct: host or cells: CHO cells, transfected
# [9] = target: T4, mGluR8 (Homo sapiens, UniProt O00222); conditions: concentrations of at least 1 μM; cited from earlier work
# [10] = target: T3, rat mGluR7; conditions: CHO cells expressing rat mGluR7; read-out: IC50, inhibition of L-AP4-induced inhibition of forskolin-stimulated cAMP accumulation; cited from earlier work
# [11] = target: mGluR4 (Homo sapiens, UniProt Q14833); conditions: concentrations of at least 1 μM; cited from earlier work
# [12] = target: mGluR3 (Homo sapiens, UniProt Q14832); conditions: concentrations of at least 1 μM; cited from earlier work
# [13] = target: T1, mGluR7; conditions: cited from earlier work
# [14] = target: T1, mGluR7; parameters: host or cells: CHO cells (printed only for the inverse-agonism experiment, A12); conditions: CHO cells expressing mGluR7; cited from earlier work
# [15] = target: T1, mGluR7; parameters: host or cells: CHO cells, transfected; conditions: CHO cells coexpressing human mGluR7 with G15; cited from earlier work
# [16] = target: T1, mGluR7; conditions: cited from earlier work; remark: listed apart in the source
# [17] = target: mGluR5 (Homo sapiens, UniProt P41594); conditions: concentrations of at least 1 μM; cited from earlier work
# [18] = target: mGluR2 (Homo sapiens, UniProt Q14416); conditions: concentrations of at least 1 μM; cited from earlier work
# [19] = target: T1, mGluR7; conditions: antagonist; read-out: 1050 values on inhibition of glutamate stimulated inositol phosphate accumulation, mGluR7; cited from earlier work
# [20] = target: mGluR6 (Homo sapiens, UniProt O15303); conditions: antagonist; read-out: 1050 values on inhibition of glutamate stimulated inositol phosphate accumulation, mGluR6; cited from earlier work
# [21] = target: T4, mGluR8; conditions: antagonist; read-out: 1050 values on inhibition of glutamate stimulated inositol phosphate accumulation, mGluR8; cited from earlier work
# [22] = Example 3: person, topical otic drops twice daily, baseline 50 decibel, above 2000 Hz
# T2 sequence (Q68ED2 35-915): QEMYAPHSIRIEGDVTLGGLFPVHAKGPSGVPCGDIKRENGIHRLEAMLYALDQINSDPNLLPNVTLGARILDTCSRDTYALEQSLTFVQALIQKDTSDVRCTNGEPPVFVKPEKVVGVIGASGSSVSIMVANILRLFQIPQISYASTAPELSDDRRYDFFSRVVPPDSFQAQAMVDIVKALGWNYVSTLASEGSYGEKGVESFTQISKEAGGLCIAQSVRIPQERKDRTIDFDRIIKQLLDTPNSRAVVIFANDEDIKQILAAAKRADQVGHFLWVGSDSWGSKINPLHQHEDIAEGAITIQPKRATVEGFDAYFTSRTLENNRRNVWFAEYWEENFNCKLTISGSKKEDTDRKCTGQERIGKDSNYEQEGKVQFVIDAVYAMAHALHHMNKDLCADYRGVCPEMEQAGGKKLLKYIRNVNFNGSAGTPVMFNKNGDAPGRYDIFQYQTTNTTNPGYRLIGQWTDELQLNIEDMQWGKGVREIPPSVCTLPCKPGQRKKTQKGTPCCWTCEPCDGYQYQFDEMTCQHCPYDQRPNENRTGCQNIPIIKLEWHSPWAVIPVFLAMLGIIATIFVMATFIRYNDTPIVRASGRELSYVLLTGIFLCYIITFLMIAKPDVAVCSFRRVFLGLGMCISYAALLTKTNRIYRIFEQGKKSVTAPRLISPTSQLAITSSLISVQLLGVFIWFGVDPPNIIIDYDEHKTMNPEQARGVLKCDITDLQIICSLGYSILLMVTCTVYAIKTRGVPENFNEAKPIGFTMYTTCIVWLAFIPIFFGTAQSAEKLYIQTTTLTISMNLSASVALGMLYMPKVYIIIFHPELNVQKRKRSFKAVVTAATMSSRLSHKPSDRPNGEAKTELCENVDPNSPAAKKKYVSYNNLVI
# T1 sequence (Q14831 35-915): as the sequence (Q68ED2 35-915) above, with T454S, P486A, N544D counted along it
# T3 sequence (P35400 35-915): as the sequence (Q68ED2 35-915) above, with N420H, P486S counted along it
# T4 sequence (O00222 34-908, species assumed): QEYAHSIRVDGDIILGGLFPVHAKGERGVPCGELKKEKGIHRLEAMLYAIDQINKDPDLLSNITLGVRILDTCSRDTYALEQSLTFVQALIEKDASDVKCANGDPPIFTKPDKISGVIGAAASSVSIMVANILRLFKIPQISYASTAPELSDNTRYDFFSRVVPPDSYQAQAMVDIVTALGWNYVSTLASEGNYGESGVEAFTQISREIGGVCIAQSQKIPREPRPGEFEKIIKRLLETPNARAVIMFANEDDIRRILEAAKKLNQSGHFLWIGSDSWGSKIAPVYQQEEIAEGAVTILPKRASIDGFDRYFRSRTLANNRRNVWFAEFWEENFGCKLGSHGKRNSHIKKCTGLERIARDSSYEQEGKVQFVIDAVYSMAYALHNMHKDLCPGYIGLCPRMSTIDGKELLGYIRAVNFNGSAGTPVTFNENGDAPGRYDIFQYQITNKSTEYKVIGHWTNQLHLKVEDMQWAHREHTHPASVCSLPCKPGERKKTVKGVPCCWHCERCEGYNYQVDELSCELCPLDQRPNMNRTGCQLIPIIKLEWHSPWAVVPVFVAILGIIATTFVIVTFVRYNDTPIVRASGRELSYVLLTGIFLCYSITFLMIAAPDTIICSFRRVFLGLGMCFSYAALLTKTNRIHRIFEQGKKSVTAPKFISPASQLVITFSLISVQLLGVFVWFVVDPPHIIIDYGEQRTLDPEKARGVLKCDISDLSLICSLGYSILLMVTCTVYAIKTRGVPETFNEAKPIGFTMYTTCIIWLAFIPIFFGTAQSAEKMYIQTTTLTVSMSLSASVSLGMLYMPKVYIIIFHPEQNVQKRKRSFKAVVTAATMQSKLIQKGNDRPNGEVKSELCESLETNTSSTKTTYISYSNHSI
# mGluR2, sequence (Q14416 19-872): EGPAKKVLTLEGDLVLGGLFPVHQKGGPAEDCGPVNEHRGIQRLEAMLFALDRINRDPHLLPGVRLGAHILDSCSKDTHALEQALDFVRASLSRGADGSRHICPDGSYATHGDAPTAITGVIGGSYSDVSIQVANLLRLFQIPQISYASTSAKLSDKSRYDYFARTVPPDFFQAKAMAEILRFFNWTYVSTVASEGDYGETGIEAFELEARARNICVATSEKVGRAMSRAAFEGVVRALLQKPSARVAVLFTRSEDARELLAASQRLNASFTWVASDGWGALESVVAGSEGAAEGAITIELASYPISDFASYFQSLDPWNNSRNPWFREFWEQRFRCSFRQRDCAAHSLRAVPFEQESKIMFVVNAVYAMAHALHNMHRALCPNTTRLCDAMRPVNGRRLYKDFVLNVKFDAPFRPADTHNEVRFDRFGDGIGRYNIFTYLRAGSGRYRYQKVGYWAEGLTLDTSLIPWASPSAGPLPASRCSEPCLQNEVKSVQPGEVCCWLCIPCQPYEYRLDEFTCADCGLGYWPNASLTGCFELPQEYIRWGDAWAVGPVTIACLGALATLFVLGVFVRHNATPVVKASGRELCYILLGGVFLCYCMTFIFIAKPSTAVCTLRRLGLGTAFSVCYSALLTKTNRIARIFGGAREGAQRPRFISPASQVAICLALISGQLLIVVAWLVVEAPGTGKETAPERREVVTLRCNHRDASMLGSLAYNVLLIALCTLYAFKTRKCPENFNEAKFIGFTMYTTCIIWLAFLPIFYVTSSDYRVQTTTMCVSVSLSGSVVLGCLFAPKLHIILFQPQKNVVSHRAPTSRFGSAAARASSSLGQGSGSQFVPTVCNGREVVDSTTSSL
# human mGluR7b, sequence (Q14831 35-922 isoform Q14831-2 limits assumed): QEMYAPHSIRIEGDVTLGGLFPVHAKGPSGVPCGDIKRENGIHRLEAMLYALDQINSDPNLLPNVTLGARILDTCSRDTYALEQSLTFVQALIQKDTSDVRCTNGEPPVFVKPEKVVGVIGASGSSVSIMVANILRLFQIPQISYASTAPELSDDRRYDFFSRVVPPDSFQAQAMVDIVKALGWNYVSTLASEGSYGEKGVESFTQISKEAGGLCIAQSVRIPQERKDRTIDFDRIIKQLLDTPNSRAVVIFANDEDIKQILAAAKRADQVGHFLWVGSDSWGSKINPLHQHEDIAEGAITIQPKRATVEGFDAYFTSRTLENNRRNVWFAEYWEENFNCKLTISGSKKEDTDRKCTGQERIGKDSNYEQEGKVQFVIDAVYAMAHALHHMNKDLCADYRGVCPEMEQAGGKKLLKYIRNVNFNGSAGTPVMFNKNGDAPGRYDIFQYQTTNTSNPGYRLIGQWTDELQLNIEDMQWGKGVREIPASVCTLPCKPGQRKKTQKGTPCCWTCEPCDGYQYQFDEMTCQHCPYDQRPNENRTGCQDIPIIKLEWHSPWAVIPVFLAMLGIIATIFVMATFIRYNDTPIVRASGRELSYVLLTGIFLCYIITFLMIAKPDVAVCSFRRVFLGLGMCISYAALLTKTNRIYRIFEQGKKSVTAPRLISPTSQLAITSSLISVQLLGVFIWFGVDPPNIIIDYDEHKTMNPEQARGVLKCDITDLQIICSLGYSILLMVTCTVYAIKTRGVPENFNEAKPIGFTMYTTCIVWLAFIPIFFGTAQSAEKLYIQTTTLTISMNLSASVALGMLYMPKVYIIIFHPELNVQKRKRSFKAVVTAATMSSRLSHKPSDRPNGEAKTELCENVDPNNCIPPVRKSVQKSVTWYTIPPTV
# mGluR5, sequence (P41594 21-1212): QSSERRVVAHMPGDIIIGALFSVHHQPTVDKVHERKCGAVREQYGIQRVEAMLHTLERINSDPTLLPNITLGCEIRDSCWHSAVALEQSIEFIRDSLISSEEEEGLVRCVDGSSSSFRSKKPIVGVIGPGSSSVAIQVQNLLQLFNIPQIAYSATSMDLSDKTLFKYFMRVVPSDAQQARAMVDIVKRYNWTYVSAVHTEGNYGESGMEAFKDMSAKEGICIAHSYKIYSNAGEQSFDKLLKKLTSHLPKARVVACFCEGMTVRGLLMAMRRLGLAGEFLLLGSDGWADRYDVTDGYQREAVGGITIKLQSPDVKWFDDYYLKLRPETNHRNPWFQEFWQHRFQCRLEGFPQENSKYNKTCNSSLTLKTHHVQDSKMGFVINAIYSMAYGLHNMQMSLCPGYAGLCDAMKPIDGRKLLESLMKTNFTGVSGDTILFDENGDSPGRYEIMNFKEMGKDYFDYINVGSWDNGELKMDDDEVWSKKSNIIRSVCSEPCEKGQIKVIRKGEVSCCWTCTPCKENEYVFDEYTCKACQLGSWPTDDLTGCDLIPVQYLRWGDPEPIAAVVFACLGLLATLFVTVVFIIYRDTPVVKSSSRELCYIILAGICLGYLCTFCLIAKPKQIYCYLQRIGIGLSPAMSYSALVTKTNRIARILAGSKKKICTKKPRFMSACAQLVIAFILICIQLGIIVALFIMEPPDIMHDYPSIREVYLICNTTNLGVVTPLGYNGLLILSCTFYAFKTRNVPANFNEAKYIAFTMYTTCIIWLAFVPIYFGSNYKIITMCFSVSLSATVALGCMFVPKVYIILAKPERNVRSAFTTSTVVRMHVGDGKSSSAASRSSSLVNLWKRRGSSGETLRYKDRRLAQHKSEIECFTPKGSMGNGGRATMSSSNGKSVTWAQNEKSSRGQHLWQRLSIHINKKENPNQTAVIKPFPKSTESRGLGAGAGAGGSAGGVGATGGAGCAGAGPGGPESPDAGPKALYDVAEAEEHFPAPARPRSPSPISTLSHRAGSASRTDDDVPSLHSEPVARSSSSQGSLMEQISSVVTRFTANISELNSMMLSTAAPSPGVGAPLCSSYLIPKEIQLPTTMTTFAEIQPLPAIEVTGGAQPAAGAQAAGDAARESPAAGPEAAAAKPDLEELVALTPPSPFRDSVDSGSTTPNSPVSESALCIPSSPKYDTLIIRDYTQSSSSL
compound,measurement,setting,value
"Cl.Cl.c1ccc(C(NCCNC(c2ccccc2)c2ccccc2)c2ccccc2)cc1 [AMN082, N,N′-dibenzhydryl-ethane-1,2-diamine dihydrochloride]",activation of mGluR7,[1],fully activating
same,hearing threshold left ear,[2]; [22],40 decibels
same,hearing threshold right ear,[2]; [22],35 decibels
same,hearing threshold left ear,"[2]; Example 4: person, oral 2 ug 4 times per day, baseline 35 decibel, above 1000 Hz",25 decibels
same,hearing threshold right ear,"[2]; Example 4: person, oral 2 ug 4 times per day, baseline 40 decibel, above 1000 Hz",35 decibels
same,hearing in both ears,"[2]; Example 5: person, cochlear osmotic pump 10 ug/hour, after 10 days",improved
same,oral activity,"[3]; in vivo, po",orally active
same,blood-brain barrier penetration,[3]; in vivo,penetrate the blood-brain barrier
same,increase in stress hormone levels in mGluR7 knockout animals,[3]; mGluR7 knockout animals,absent
same,stress hormone levels,[3]; wild-type animals,robust increase
"N[C@@H](C(=O)O)c1ccc(P(=O)(O)O)cc1 (racemic) [(+)-PPG, (R,S)-phosphonophenylglycine]",EC50,[4],3.2 µM
same,EC50,[5],48 µM
"N[C@@H](CCP(=O)(O)O)C(=O)O [L-AP4, L-(+)-2-amino-4-phosphonobutyric acid]","concentrations activating mGluR7 relative to those activating mGluRs 4, 6, and 8",[6],2-3 orders of magnitude
"COc1ccc(-c2cc3onc(-c4ccncc4)c3c(=O)n2C)cc1 [MMPIP, 6-(4-methoxyphenyl)-5-methyl-3-pyridin-4-ylisoxazolo[4,5-c]pyridin-4(5H)-one]",effect on mGluR1,[7],no significant effect
same,maximal response in agonist concentration-response curves in the presence of the compound,[8],reduced
same,reversibility of antagonism,[8],reversible
same,effect on mGluR8,[9],no significant effect
same,IC50,[10],0.22 µM
same,effect on mGluR4,[11],no significant effect
same,effect on mGluR3,[12],no significant effect
same,antagonism of AMN082-induced inhibition of cAMP accumulation,[13],able to antagonize
same,forskolin-stimulated cAMP levels in the absence of agonists (inverse agonistic activity),[14],further increase
same,inhibition of the L-AP4-induced cAMP response,[15],inhibited
same,displacement of [3H]LY341495 bound to mGluR7,[16],did not displace
same,effect on mGluR5,[17],no significant effect
same,effect on mGluR2,[18],no significant effect
"5-Methyl-3,6-diphenylisoxazolo[4,5-e]pyridin-4(5H)-one [MDIP]",IC50,"[8]; CHO cells coexpressing rat mGluR7 with G15, read-out: IC50, inhibition of L-AP4-induced intracellular Ca2+ mobilization",0.02 µM
same,IC50,[10],0.099 µM
same,inhibition of the L-AP4-induced cAMP response,[15],inhibited
"N[C@H](C(=O)O)C1[C@H](C(=O)O)[C@H]1C(=O)O (stereo partly drawn) [DCG-IV, (2S,1'S,2'S)-2-(dicarboxycyclopropyl)glycine]",IC50,[19],40.1 µM
same,IC50,[20],39.6 µM
same,IC50,[21],32 µM
